Experimental data taken from patent US20060252800A1, “Anti-leishmania agent” (priority 2003, published 2006).

System: Leishmania (L. major)
Test: Leishmania protozoa proliferation inhibition assay
Assay type: cell-based
Details: for OD level (number of viable Leishmania protozoa): 48 hours at 27° C., absorbance 450 nm minus 630 nm; for IC50: calculated from the graphs of FIGS. 1 to 4 (concentration vs number of viable leishmania protozoa), read-out: Concentration inhibiting 50% leishmania proliferation
Description: After dissolving each of the obtained compounds in dimethylsulfoxide (hereinafter referred to as DMSO), the resultant was diluted by 9 steps in Medium 199 medium (Invitrogen) to the indicated concentration, filtrated with a membrane filter, and each of the filtration was made as a sample solution. […] By keeping the solution at 27° C., incubation was performed under 5% CO2, for 48 hours. Then, TetraColor ONE (tradename: Seikagaku Corporation) reagent was added thereto and further incubated for 6 hours. Then, the absorbance at a wavelength of 450 nm was measured for the 96-well microtiter plate with a microplate reader, the wave length of 630 nm was made as reference wave length, and in order to exclude background effect, the absorbance at 630 nm was excluded from the one at 450 nm, and the OD level was calculated as a level to indicate the number of viable Leishmania protozoa. The assay was performed by three wells at a time for each concentration of each sample, and the mean level was made as OD level. […] Amphotericin B was used as positive control. […] Inhibiting effect against […] protozoa for each sample was similar or more compared with that of Amtephotericin B.

[1] = Table 1, sample concentration 0.001 mg/ml
[2] = Table 1, sample concentration 0.016384 mg/ml
[3] = Table 1, sample concentration 0.04096 mg/ml
[4] = Table 1, sample concentration 0.1024 mg/ml
[5] = Table 1, sample concentration 0.256 mg/ml
[6] = Table 1, sample concentration 0.64 mg/ml
[7] = Table 1, sample concentration 1.6 mg/ml
[8] = Table 1, sample concentration 4 mg/ml
[9] = Table 1, sample concentration 10 mg/ml
[10] = Table 1, sample concentration 25 mg/ml, mean of three wells
[11] = Table 3, sample concentration 0.001 mg/ml
[12] = Table 3, sample concentration 0.002165 mg/ml
[13] = Table 3, sample concentration 0.0072171 mg/ml
[14] = Table 3, sample concentration 0.02406 mg/ml
[15] = Table 3, sample concentration 0.08019 mg/ml
[16] = Table 3, sample concentration 0.2673 mg/ml
[17] = Table 3, sample concentration 0.891 mg/ml
[18] = Table 3, sample concentration 2.97 mg/ml
[19] = Table 3, sample concentration 9.9 mg/ml
[20] = Table 3, sample concentration 33 mg/ml

Compound	OD level (number of viable Leishmania protozoa) [1]	OD level (number of viable Leishmania protozoa) [2]	OD level (number of viable Leishmania protozoa) [3]	OD level (number of viable Leishmania protozoa) [4]	OD level (number of viable Leishmania protozoa) [5]	OD level (number of viable Leishmania protozoa) [6]	OD level (number of viable Leishmania protozoa) [7]	OD level (number of viable Leishmania protozoa) [8]	OD level (number of viable Leishmania protozoa) [9]	IC50 [nM]	OD level (number of viable Leishmania protozoa) [11]	OD level (number of viable Leishmania protozoa) [12]	OD level (number of viable Leishmania protozoa) [13]	OD level (number of viable Leishmania protozoa) [14]	OD level (number of viable Leishmania protozoa) [15]	OD level (number of viable Leishmania protozoa) [16]	OD level (number of viable Leishmania protozoa) [17]	OD level (number of viable Leishmania protozoa) [18]	OD level (number of viable Leishmania protozoa) [19]	OD level (number of viable Leishmania protozoa) [20]	other results
CCn1c(=Cc2sc3ccccc3[n+]2CC)sc(=c2sc(=C3Sc4ccccc4N3C)c(=O)n2CC)c1=O.[Br-] [IV (e), 2-[[5-{5′-(3″-methyl-2″ (3″H)-benzothiazolylidene)-4′-oxo-3′-ethyl-2′-thiazolidinylidene)-4-oxo-3-ethyl-2-thiazolidinylidene]methyl]-3-ethylbenzothiazolium=bromide]	0.463	0.445	0.220	0.159	0.056	0.035	0.030	0.030	0.032	61	–	–	–	–	–	–	–	–	–	–	OD level (number of viable Leishmania protozoa) [10]: 0.033
CCn1c(=Cc2cccc[n+]2C)sc(=C2Sc3ccc(Cl)cc3N2C)c1=O.Cc1ccc(S(=O)(=O)[O-])cc1 [IV (f), 2-[{5-(5-chloro-3-methyl-2(3H)-benzothiazolylidene)-4-oxo-3-ethyl-2-thiazolidinylidene}methyl]-1-methylpyridinium=p-toluenesulfonate]	–	–	–	–	–	–	–	–	–	540	0.352	0.388	0.369	0.384	0.428	0.214	0.116	0.081	0.064	0.038	–
CCn1c(=Cc2sc3ccc4ccccc4c3[n+]2C)sc(=C2Sc3ccccc3N2C)c1=O.Cc1ccc(S(=O)(=O)[O-])cc1 [IV (g), 2-[{5-(3-methyl-2(3H)-benzothiazolylidene)-4-oxo-3-ethyl-2-thiazolidinylidene}methyl]-3-methylbenzo[e]benzothiazolium=p-toluenesulfonate]	–	–	–	–	–	–	–	–	–	12	–	–	–	–	–	–	–	–	–	–	OD level (number of viable Leishmania protozoa) (Table 2, sample concentration 0.0001 mg/ml): 0.352; OD level (number of viable Leishmania protozoa) (Table 2, sample concentration 0.0007 mg/ml): 0.368; OD level (number of viable Leishmania protozoa) (Table 2, sample concentration 0.002 mg/ml): 0.253; OD level (number of viable Leishmania protozoa) (Table 2, sample concentration 0.008 mg/ml): 0.121; OD level (number of viable Leishmania protozoa) (Table 2, sample concentration 0.025 mg/ml): 0.055; OD level (number of viable Leishmania protozoa) (Table 2, sample concentration 0.084 mg/ml): 0.032; OD level (number of viable Leishmania protozoa) (Table 2, sample concentration 0.279 mg/ml): 0.030; OD level (number of viable Leishmania protozoa) (Table 2, sample concentration 0.93 mg/ml): 0.031; OD level (number of viable Leishmania protozoa) (Table 2, sample concentration 3.1 mg/ml): 0.029; OD level (number of viable Leishmania protozoa) (Table 2, sample concentration 2E−04 mg/ml): 0.448
C=CCn1c(=Cc2cccc[n+]2C)sc(=C2Sc3ccc(Cl)cc3N2C)c1=O.Cc1ccc(S(=O)(=O)[O-])cc1 [IV (h), 2-[{5-(5-chloro-3-methyl-2(3H)-benzothiazolylidene)-4-oxo-3-(2-propenyl)-2-thiazolidinylidene}methyl]-1-methylpyridinium=p-toluenesulfonate]	–	–	–	–	–	–	–	–	–	270	0.352	0.368	0.375	0.423	0.277	0.140	0.079	0.039	0.029	0.034	–
CCn1c(=Cc2cccc[n+]2CC)sc(=C2Sc3ccccc3N2C)c1=O.[Cl-] [IV (i), 2-[{5-(3-methyl-2(3H)-benzothiazolylidene)-4-oxo-3-ethyl-2-thiazolidinylidene}methyl]-1-ethylpyridinium=chloride]	0.451	0.504	0.482	0.478	0.153	0.086	0.039	0.033	0.030	460	–	–	–	–	–	–	–	–	–	–	OD level (number of viable Leishmania protozoa) [10]: 0.026
CCn1c(=Cc2cc[n+](C)cc2)sc(=C2Sc3ccccc3N2C)c1=O.Cc1ccc(S(=O)(=O)[O-])cc1 [IV (j), 4-[(5-(3-methyl-2(3H)-benzothiazolylidene)-4-oxo-3-ethyl-2-thiazolidinylidene}methyl]-1-methylpyridinium=p-toluenesulfonate]	0.446	0.462	0.468	0.518	0.661	0.793	0.551	0.275	0.188	10000	–	–	–	–	–	–	–	–	–	–	OD level (number of viable Leishmania protozoa) [10]: 0.057
CN1C(=c2sc(=Cc3sc4ccccc4[n+]3C)n(CC3CCCO3)c2=O)Sc2ccccc21.Cc1ccc(S(=O)(=O)[O-])cc1 (stereo not shown) [IV (k), 2-[{5-(3-methyl-2(3H)-benzothiazolylidene)-4-oxo-3-(2-tetrahydrofuranyl)methyl-2-thiazolidinylidene}methyl]-1-methylbenzothiazolium=p-toluenesulfonate]	–	–	–	–	–	–	–	–	–	2600	0.338	0.356	0.344	0.341	0.351	0.348	0.371	0.434	0.154	0.029	–
CN1C(=c2sc(=Cc3cccc[n+]3C)n(CC3CCCO3)c2=O)Sc2ccc3ccccc3c21.Cc1ccc(S(=O)(=O)[O-])cc1 (stereo not shown) [IV (l), 2-[{5-(3-methyl-2(3H)-benzobenzo[e]thiazolilidene)-4-oxo-3-(2-tetrahydrofuranyl)methyl-2-thiazolidinylidene}methyl]-1-methylpyridinium=p-toluenesulfonate]	–	–	–	–	–	–	–	–	–	1300	0.357	0.346	0.358	0.357	0.377	0.391	0.178	0.080	0.035	0.029	–
